Here are results for eleven molecules from ChEMBL document CHEMBL2396621, “Design, synthesis and biological evaluation of 2-mercapto-3-phenethylquinazoline bearing anilide fragments as potential antitumor agents: molecular docking study” (2013).

SMILES strings stand for the structures.

Common to all, as to format: functional
In one experiment the test system is NCI-H522. The experiment is described as follows: Cytotoxicity against human NCI-H522 cells assessed as growth inhibition at 10 uM after 48 hrs by coulter counter analysis. The settings on record: NCI-H522, 48 h, read-out: GI.
A further experiment deals with SK-MEL-5. Description: Cytotoxicity against human SK-MEL-5 cells assessed as growth inhibition at 10 uM after 48 hrs by coulter counter analysis. The note with it: SK-MEL-5, 48 h, read-out: GI.
The subject of another experiment is DU-145. Description: Cytotoxicity against human DU145 cells assessed as growth inhibition at 10 uM after 48 hrs by coulter counter analysis. The settings on record: DU-145, 48 h, read-out: GI.
The next experiment concerns OVCAR-3. Description: Cytotoxicity against human OVCAR3 cells assessed as growth inhibition at 10 uM after 48 hrs by coulter counter analysis. The note with it: OVCAR-3, 48 h, read-out: GI.
Another experiment relates to BT-549. Description: Cytotoxicity against human BT549 cells assessed as growth inhibition at 10 uM after 48 hrs by coulter counter analysis. The note with it: BT-549, 48 h, read-out: GI.
For the next experiment, the system named is HCC 2998. Description: Cytotoxicity against human HCC2998 cells assessed as growth inhibition at 10 uM after 48 hrs by coulter counter analysis. The settings on record: HCC 2998, 48 h, read-out: GI.
The test system of the next experiment is ACHN. Description: Cytotoxicity against human ACHN cells assessed as growth inhibition at 10 uM after 48 hrs by coulter counter analysis. The settings on record: read-out: GI.
The next experiment has as its system MDA-MB-231. Description: Cytotoxicity against human MDA-MB-231 cells assessed as growth inhibition at 10 uM after 48 hrs by coulter counter analysis. The note with it: MDA-MB-231, 48 h, read-out: GI.
In the next experiment the test system is NCI-H23. Description: Cytotoxicity against human NCI-H23 cells assessed as growth inhibition at 10 uM after 48 hrs by coulter counter analysis. The settings on record: NCI-H23, 48 h, read-out: GI.
For another experiment, the system named is NCI-H460. The experiment is described as follows: Cytotoxicity against human NCI-H460 cells assessed as growth inhibition at 10 uM after 48 hrs by coulter counter analysis. The settings on record: NCI-H460, 48 h, read-out: GI.
Another experiment concerns HCT-116. The experiment is described as follows: Cytotoxicity against human HCT116 cells assessed as growth inhibition at 10 uM after 48 hrs by coulter counter analysis. The note with it: HCT-116, 48 h, read-out: GI.
The subject of another experiment is Hs-578T. Description: Cytotoxicity against human Hs578T cells assessed as growth inhibition at 10 uM after 48 hrs by coulter counter analysis. The settings on record: read-out: GI.
Another experiment relates to HOP-62. Description: Cytotoxicity against human HOP62 cells assessed as growth inhibition at 10 uM after 48 hrs by coulter counter analysis. The note with it: HOP-62, 48 h, read-out: GI.
Another experiment deals with SF-539. The experiment is described as follows: Cytotoxicity against human SF539 cells assessed as growth inhibition at 10 uM after 48 hrs by coulter counter analysis. The settings on record: SF-539, 48 h, read-out: GI.
The test system of the next experiment is MOLT-4. Description: Cytotoxicity against human MOLT4 cells assessed as growth inhibition at 10 uM after 48 hrs by coulter counter analysis. The settings on record: MOLT-4, 48 h, read-out: GI.
For the next experiment, the system named is HL-60(TB). Description: Cytotoxicity against human HL-60(TB) cells assessed as growth inhibition at 10 uM after 48 hrs by coulter counter analysis. The settings on record: HL-60, 48 h, read-out: GI.

In the case of `O=C(CSc1nc2ccccc2c(=O)n1CCc1ccccc1)Nc1ccccc1C(=O)O`, the inhibition of growth at 10 µM with NCI-H522 was 85%; in the experiment with SK-MEL-5 it was 35%; in the experiment with DU-145, 30%; with OVCAR-3, 29%; in the experiment on BT-549, 10%; in the experiment with HCC 2998, under 10%. For the same molecule, the inhibition of growth at 10 µM in the experiment with ACHN amounted to 34%; in the experiment with MDA-MB-231, 45%; with NCI-H23, 26%; in the experiment on NCI-H460 it was 41%; in the experiment on HCT-116 it was 45%; in the experiment with Hs-578T it was 45%. For the same molecule, the inhibition of growth at 10 µM in the experiment with HOP-62 is 49%; with SF-539, 44%.

On to `CC(=O)c1ccc(NC(=O)CSc2nc3ccccc3c(=O)n2CCc2ccccc2)cc1`, for which the inhibition of growth at 10 µM with NCI-H522 was 51%; in the experiment with SK-MEL-5, 25%; in the experiment on DU-145, 11%; in the experiment on OVCAR-3, 23%; in the experiment with BT-549, under 10%; in the experiment with HCC 2998, under 10%. The inhibition of growth at 10 µM in the experiment with ACHN was 30%; in the experiment on MDA-MB-231, 39%; in the experiment on NCI-H23, 12%; in the experiment on NCI-H460 it was 31%; with HCT-116 it was 37%; in the experiment on Hs-578T, 33%. The inhibition of growth at 10 µM with HOP-62 was 22%; in the experiment on SF-539, under 10%.

In the case of `O=C(CSc1nc2ccccc2c(=O)n1CCc1ccccc1)NCc1ccccc1`, the inhibition of growth at 10 µM is 28% in the experiment with NCI-H522; 22% in the experiment with SK-MEL-5; 13% with DU-145; 10% in the experiment with OVCAR-3; under 10% in the experiment with BT-549; under 10% in the experiment on HCC 2998. Moreover, the inhibition of growth at 10 µM worked out at 38% in the experiment on ACHN; 37% in the experiment with MDA-MB-231; 10% in the experiment on NCI-H23; 29% in the experiment with NCI-H460; 27% in the experiment on HCT-116; 37% in the experiment on Hs-578T. The figures for the inhibition of growth at 10 µM in the experiment on HOP-62 and with SF-539 were 36% and 38%, respectively.

On to `CCOC(=O)c1ccc(NC(=O)CSc2nc3ccccc3c(=O)n2CCc2ccccc2)cc1`, for which the inhibition of growth at 10 µM was 26% with NCI-H522; 21% in the experiment with SK-MEL-5; 10% with DU-145; 13% with OVCAR-3; 12% with BT-549; under 10% with HCC 2998. The inhibition of growth at 10 µM in the experiment with ACHN was 21%; with MDA-MB-231, 48%; with NCI-H23, 13%; in the experiment on NCI-H460 it was 23%; in the experiment with HCT-116 it was 14%; in the experiment with Hs-578T it was 33%. For the same molecule, the inhibition of growth at 10 µM is 45% in the experiment on HOP-62 and under 10% in the experiment on SF-539.

Turning to `O=C(CSc1nc2ccccc2c(=O)n1CCc1ccccc1)Nc1ccc(Cl)cc1`, the inhibition of growth at 10 µM in the experiment on NCI-H522 was 45%; in the experiment on SK-MEL-5 it was 22%; in the experiment with DU-145 it was 12%; in the experiment on OVCAR-3, 32%; in the experiment on HCC 2998 it was under 10%; with ACHN, 22%. The inhibition of growth at 10 µM was 37% with MDA-MB-231; 21% in the experiment with NCI-H23; 32% in the experiment with NCI-H460; 23% in the experiment with HCT-116; 45% in the experiment on Hs-578T; 40% in the experiment on HOP-62. The inhibition of growth at 10 µM with SF-539 worked out at 41%.

For the molecule `CCOc1ccc(NC(=O)CSc2nc3ccccc3c(=O)n2CCc2ccccc2)cc1`, the inhibition of growth at 10 µM in the experiment with NCI-H522 is 11%; with SK-MEL-5, under 10%; with DU-145 it was under 10%; in the experiment with OVCAR-3, under 10%; in the experiment with BT-549, under 10%; with HCC 2998, under 10%. Moreover, the inhibition of growth at 10 µM in the experiment on ACHN was 12%; in the experiment with MDA-MB-231, 25%; in the experiment on NCI-H23, under 10%; in the experiment with MOLT-4, 10%; in the experiment on NCI-H460 it was 11%; in the experiment with HCT-116, 16%. Further, the figures for the inhibition of growth at 10 µM with Hs-578T, with HOP-62 and in the experiment with SF-539 were under 10%, 36% and under 10%, respectively.

As for `COc1ccc(NC(=O)CSc2nc3ccccc3c(=O)n2CCc2ccccc2)cc1`, the inhibition of growth at 10 µM in the experiment with NCI-H522 is under 10%; in the experiment on SK-MEL-5 it was 10%; with DU-145, under 10%; in the experiment on OVCAR-3, 10%; in the experiment on BT-549 it was 10%; in the experiment with HCC 2998, under 10%. Moreover, the inhibition of growth at 10 µM is under 10% with ACHN; 39% in the experiment on MDA-MB-231; under 10% in the experiment on NCI-H23; 25% with NCI-H460; 13% in the experiment with HCT-116; 49% in the experiment on Hs-578T. The inhibition of growth at 10 µM with HOP-62 came out at 52%; in the experiment with SF-539 it was 10%.

Turning to `O=C(CSc1nc2ccccc2c(=O)n1CCc1ccccc1)Oc1ccc(Cl)cc1`, the inhibition of growth at 10 µM was 37% in the experiment on NCI-H522; under 10% in the experiment on SK-MEL-5; under 10% with DU-145; under 10% in the experiment on OVCAR-3; 15% in the experiment with BT-549; under 10% in the experiment on HCC 2998. Further, the inhibition of growth at 10 µM in the experiment on ACHN is under 10%; with MDA-MB-231, 33%; in the experiment with NCI-H23 it was 25%; in the experiment on NCI-H460 it was under 10%; in the experiment with HCT-116 it was under 10%; in the experiment on Hs-578T it was 41%. The inhibition of growth at 10 µM in the experiment on HOP-62 is 10%; with SF-539, under 10%.

As to `O=C(CSc1nc2ccccc2c(=O)n1CCc1ccccc1)Nc1cc(Cl)ccc1C(=O)O`, the inhibition of growth at 10 µM was under 10% with NCI-H522; under 10% with SK-MEL-5; under 10% in the experiment with DU-145; under 10% in the experiment on OVCAR-3; 10% in the experiment with BT-549; under 10% in the experiment on HCC 2998. The inhibition of growth at 10 µM in the experiment with ACHN, in the experiment on MDA-MB-231, in the experiment with NCI-H23, in the experiment on NCI-H460, in the experiment with HCT-116 and in the experiment on Hs-578T was under 10% each time. In addition, the inhibition of growth at 10 µM in the experiment on HOP-62 and with SF-539 was under 10% in each case.

As for `O=C(CSc1nc2ccccc2c(=O)n1CCc1ccccc1)Oc1ccccc1`, the inhibition of growth at 10 µM in the experiment on NCI-H522 was 37%; in the experiment with SK-MEL-5 it was under 10%; in the experiment with OVCAR-3, under 10%; in the experiment with BT-549, under 10%; in the experiment with HCC 2998, under 10%; in the experiment with ACHN it was 10%. The inhibition of growth at 10 µM is 15% in the experiment with MDA-MB-231; 14% in the experiment on NCI-H23; 23% with MOLT-4; 14% in the experiment on NCI-H460; 21% in the experiment with HCT-116; under 10% in the experiment with Hs-578T. Besides, the inhibition of growth at 10 µM in the experiment with HL-60(TB) is 11%; in the experiment on SF-539, under 10%.

Take `COc1cc(OC(=O)CSc2nc3ccccc3c(=O)n2CCc2ccccc2)cc(OC)c1OC`: the inhibition of growth at 10 µM was under 10% in the experiment with NCI-H522; under 10% in the experiment with SK-MEL-5; under 10% in the experiment with DU-145; under 10% in the experiment with OVCAR-3; 10% in the experiment with BT-549; under 10% with HCC 2998. The inhibition of growth at 10 µM in the experiment on ACHN is 10%; in the experiment on MDA-MB-231, 20%; with NCI-H23, under 10%; with NCI-H460 it was 26%; in the experiment on HCT-116 it was 20%; with Hs-578T, under 10%. For the same molecule, the inhibition of growth at 10 µM with HOP-62 and in the experiment on SF-539 was under 10% each time.
